Counter-ions that a name gives are not always drawn. Like-named read-outs stand apart in the source and are kept apart here.
Experiments:
LDL receptor mRNA [1] = test: Stimulation of LDL receptor mRNA expression in HepG2 cells (Northern blot); type: cell-based; conditions: Homo sapiens; HepG2, 2 × 10^-6 M, 16 h; control = 100%; ratio to β-actin mRNA
Experimental: 1a. In the human hepatocytoma cell line HepG2, which is recognized everywhere as model, the LDL receptor mRNA levels are increased by the compounds of the formula I (Table I).
(§1) The mRNA was prepared by the method described by Chomczynski, P. and Sacchi, N., in Anal. Biochem. 162, 156-159 (1987). In the case of organs (such as, for example, liver), the deep-frozen tissue was previously homogenized on dry ice in a mortar, and the mRNA was further concentrated by means of oligo dT by standard methods (cf. Sambrook, J., Fritsch, E. F. and Maniatis, T., Molecular Cloning, second edition, Cold Spring Harbor (1989); this collection of methods also includes descriptions of all the other relevant standard processes of molecular biology used here). 5 to […] of the dissolved mRNA obtained in this way were denatured by standard processes and fractionated on 1% horizontal agarose gels. The mRNA was transferred by capillary blotting to Hybond N membranes (Amersham). Used as specific hybridization probe was a partial LDL receptor cDNA clone and as internal standard was a plasmid which contained a β-actin gene. Both plasmids were labeled using a random primer kit from Amersham to a specific activity of 5×10^9 cpm/μg. Prehybridization, hybridization and washing of the filters took place by standard processes. The filters were subsequently exposed on Cronex 4 films (Dupont) in the presence of an intensifying screen at -70° C. overnight or for up to 14 days, and the hybridization signals were quantified from the intensity of blackening of the film using a commercially available laser densitometer. Subsequently, the quotient of the intensity of the LDL receptor band and of the actin band was determined as internal standard to correct for variations in yield.
The HepG2 cells were incubated in RPMI 1640 standard medium with fetal calf serum (final concentration 10%). Serum-free RPMI medium was used as induction control. Subsequently, the complete mRNA was prepared and, by means of the Northern blot technique, the relevant LDL receptor mRNA and β-actin mRNA levels were determined. The quotient of the LDL receptor mRNA signal and of the β-actin mRNA signal of the control (without added substance) was set equal to 100%, and the stimulation above this of the LDL receptor mRNA levels achieved under the influence of the compounds was expressed as percentage of the control.

serum lipoproteins = test: Effect on serum lipoproteins of normolipemic male rats in a subchronic experiment; type: in vivo; conditions: Rattus norvegicus, po, by stomach tube, 7 administrations; for change in vivo at 3 mg/kg: 3 mg/kg/day; for change in vivo at 10 mg/kg: 10 mg/kg/day; for change in vivo at 30 mg/kg: 30 mg/kg/day; for change in vivo at 1 mg/kg: 1 mg/kg/day
Experimental: 3. In vivo, the increased LDL receptor activity in experimental animals is reflected by reduction in the lipoprotein fractions which can be metabolized by the LDL receptor (apoB/E receptor), i.e. a reduction in the LDL and VLDL levels is observed. The following test was carried out:
Effect on serum lipoproteins of normolipemic male rats in a subchronic experiment
Groups of in each case 10 male rats of the HOE: WISKf (SPF 71) strain with an initial weight above 180 g received once a day (in the morning) the test product or the comparison product in 1% aqueous ®Tylose MH 300 solution by stomach tube (0.5 ml/100 g of body weight); the control group in each case received only the vehicle. The last (7th) administration took place 24 hours before removal of blood and sacrifice. There was free access to food and water during the test. The food was withdrawn 24 hours before the removal of blood.
The serum from all 10 rats in a group was pooled for the analysis of the serum lipoproteins. The serum lipoproteins were separated with a preparative ultracentrifuge (KONTRON TGA 65, Rotor BECKMAN 50.4 Ti).
The following conditions specified by Koga, S., Horwitz, D. L., and Scanu, A. M., Journal of Lipid Research 10, 577 (1969) and Havel, R. J., Eder, H. A., and Bragdon, H. H., J. Clin. Invest. 34, 1345 (1955) were used to separate VLDL and LDL: 1. VLDL: Density<1.006, 40,000 rpm for 16 hours 2. LDL: Density 1.006-1.04, 40,000 rmp for 16 hours
Test kits from BOEHRINGER/Mannheim were used for the enzymatic determination of cholesterol and triglycerides in the separated lipoprotein fractions (cf. Siedel, J., Schlumberger, H., Klose, S., Ziegenhorn, J. and Wahlefeld, A. W., J. Clin. Chem. Clin. Biochem. 19, 838 (1981) and Wahlefeld, A. W., in: H. O. Bergmeier: Methoden der enzymatischen Analyse (Methods of Enzymatic Analysis), 2nd edition, Volume II, Verlag Chemie 1974, page 1878). The proteins were determined by the method of Lowry (Lowry, O. H., Roseborough, N. H., Farr, A. L. and Randell, R. J., J. Biol. Chem. 193, 265 (1951)).
Clofibrate was used as comparison product.

LDL receptor mRNA [2] = test: Stimulation of LDL receptor mRNA expression in rat livers (Northern blot); type: in vivo; conditions: rat liver, 30 mg/kg, 6 hours after administration; untreated control = 100%
Experimental: 1b. The LDL receptor mRNA levels are also raised in rat livers by compounds of the formula I within a few hours (Table II).
as §1
Liver tissue was removed and shock-frozen in liquid nitrogen.
Subsequently, the mRNA was isolated as described and, by means of the Northern blot technique, the relative LDL receptor mRNA levels were determined. The mRNA level of untreated control animals was set equal to 100%, and the stimulation of the LDL receptor mRNA was calculated as a percentage of the […]

[3] = Solubility in water of salts (and free bases); type: physicochemical; conditions: Table 2, salts of compounds I, temp. by No. [°C]: 1 25.5, 2 23.0, 3 22.4, 4 22.4, 5 22.0, 6 25.0, 7 25.5, 8 25.5, 9 25.5, 10 23.5, 11 23.5, 12 25.0, 13 24.0, 14 23.0, 15 22.0, 16 24.5, 17 22.5, 18 22.0; for solubility: water, read-out: Solubility in water, Concentration in % by wt.
[4] = read-out: Serum LDL cholesterol, % change from control at end of treatment
[5] = read-out: Serum LDL protein, % change from control at end of treatment
[6] = read-out: Serum VLDL cholesterol, % change from control at end of treatment
[7] = read-out: Serum VLDL protein, % change from control at end of treatment
[8] = read-out: Serum VLDL triglycerides, % change from control at end of treatment

Compound	activity at 2 µM (LDL receptor mRNA [1])	change in vivo at 3 mg/kg (serum lipoproteins; [4])	change in vivo at 3 mg/kg (serum lipoproteins; [5])	change in vivo at 3 mg/kg (serum lipoproteins; [6])	change in vivo at 3 mg/kg (serum lipoproteins; [7])	change in vivo at 3 mg/kg (serum lipoproteins; [8])	change in vivo at 10 mg/kg (serum lipoproteins; [4])	change in vivo at 10 mg/kg (serum lipoproteins; [5])	change in vivo at 10 mg/kg (serum lipoproteins; [6])	change in vivo at 10 mg/kg (serum lipoproteins; [7])	change in vivo at 10 mg/kg (serum lipoproteins; [8])	change in vivo at 30 mg/kg (serum lipoproteins; [4])	change in vivo at 30 mg/kg (serum lipoproteins; [5])	change in vivo at 30 mg/kg (serum lipoproteins; [6])	change in vivo at 30 mg/kg (serum lipoproteins; [7])	change in vivo at 30 mg/kg (serum lipoproteins; [8])	LDL receptor mRNA (LDL receptor mRNA [2])	1 part by mass dissolves in ... parts by H2O [3]	solubility [3]	other results
CC1(C)CN(c2ncc(C(=O)N(c3cccc(C(F)(F)F)c3)C3CCCC3)c(N)n2)C(=O)N1 [Example 42]	180%	-34%	-22%	-23%	-11%	-29%	-29%	-9%	-23%	-10%	-29%	-48%	-29%	-70%	-40%	-61%	312%	–	–	–
CC1(C)CN(c2ncc(C(=O)N(CC3CC3)c3cccc(C(F)(F)F)c3)c(N)n2)C(=O)N1 [Example 12, 4-amino-2-(4,4-dimethyl-2-oxo-1-imidazolidinyl)pyrimidine-5-carboxylic acid N-cyclopropylmethyl-N-(3-trifluoromethylphenyl)amide hydrochloride]	170%	-26%	-5%	-6%	-8%	-4%	46%	-18%	-63%	-34%	-51%	-66%	-30%	-80%	-51%	-29%	–	–	–	–
CC(C)(C)CN(C(=O)c1cnc(N2CC(C)(C)NC2=O)nc1N)c1cccc(C(F)(F)F)c1 [Example 37]	–	–	–	–	–	–	-39%	-21%	-56%	-30%	-40%	-76%	-49%	-85%	-48%	-75%	–	53.3 parts by H2 O	19.1 mg/mL	–
CN(C(=O)c1cnc(N2CCNC2=O)nc1N)c1cccc(C(F)(F)F)c1 [Example 64, 4-amino-2-(2-oxo-1-imidazolidinyl)pyrimidine-5-carboxylic acid N-methyl-N-(3-trifluoromethylphenyl)amide hydrochloride]	–	–	–	–	–	–	–	–	–	–	–	-20%	-10%	-18%	-28%	–	–	19.8 parts by H2 O	48.1 mg/mL	–
CCC(C)N(C(=O)c1cnc(N2CC(C)(C)NC2=O)nc1N)c1cccc(C(F)(F)F)c1 (centres unmarked) [Example 8, 4-amino-2-(4,4-dimethyl-2-oxo-1-imidazolidinyl)-pyrimidine-5-carboxylic acid N-sec.-butyl-N-(3-trifluoromethylphenyl)amide hydrochloride]	237%	–	–	–	–	–	–	–	–	–	–	-30%	-18%	-39%	-26%	-37%	–	–	–	–
CCN(C(=O)c1cnc(N2CC(C)(C)NC2=O)nc1N)c1cccc(C(F)(F)F)c1 [Example 2, 4-amino-2-(4,4-dimethyl-2-oxo-1-imidazolidinyl)pyrimidine-5-carboxylic acid N-ethyl-N-(3-trifluoromethylphenyl)amide hydrochloride]	175%	40%	-28%	-30%	-7%	40%	-32%	-28%	-41%	-28%	-26%	-75%	-73%	-96%	40%	-81%	300%	–	–	change in vivo at 1 mg/kg (serum lipoproteins; [4]): -28%; change in vivo at 1 mg/kg (serum lipoproteins; [5]): -44%; change in vivo at 1 mg/kg (serum lipoproteins; [6]): -22%

Reference: patent US5571816A, “Pyrimidines” (Hoechst Aktiengesellschaft, priority 1992, dated 1996)
